We go through 1 molecule from patent US20220041559A1, “BENZO-AND PYRIDO-PYRAZOLES AS PROTEIN KINASE INHIBITORS” (ROTTAPHARM BIOTECH S.R.L., priority 2019, published 2022).

The subject of one data set is U87MG. Put plainly: Cell viability, ViaCount assay, U87MG. In kind it is cell-based, human. Particulars: tested cell lines (U87MG, U373). The method, then:
U87MG: a human glioblastoma astrocytoma from ATCC. Grown in DMEM medium supplemented with 10% FBS at 37° C. with CO2.
Cell viability and total cell count was performed with ViaCount Assay on Guava® Systems, which was able to distinguish viable and non-viable cells based on differential permeabilities of two DNA-binding dyes in the Guava ViaCount® Reagent. 2×10^4 cancer cells were plated in 24 well in DMEM 10%. After 72 h cells were treated with the different compounds for 24, 72 h or 7 days, with a medium change and a second treatment with the product on day 4. At the end of the incubation period the analysis was done following the kit instructions.

In a further data set the target is human FynB (Homo sapiens, UniProt P06241). Put plainly: Inhibition of FynB-induced Tau(Y18)-phosphorylation (cell-based assay, HEK293). On the procedure: HEK293 cells (Human Embryonic Kidney 293) were seeded at 6×10^5 in poly-D-lysine 12 w microplates and grown adherent in medium DMEM/10% FBS at 37° C. with 5% CO2. After 24 h, cells were transfected in order to over-express either constitutively active form of human FynB and Tau protein (isoform 0N4R), through an optimized Lipofectamine® 3000 Transfection protocol (Life Technologies™). A non-transfected sample (negative control) was included in every experiment.
Twenty-four hours from transfection, treatments of cells were performed by adding fresh medium containing diluent (DMSO 0.1% final concentration) or test compounds. The incubation was carried out for 6 or 24 hours at 37° C. with 5% CO2. All experimental conditions were performed in duplicate.
At the end of the incubation, the medium was removed and cellular lysates were obtained by adding M-PER lysis buffer containing a 1× Protease/Phosphatase inhibitors cocktail. Then, lysates were transferred into Eppendorf tubes, sonicated and stored at −80° C.
Protein content was measured by Bradford method. Lysates were analyzed by a customized ELISA assay for Tau phosphorylation (Tyrosine 18 residue-Fyn mediated) and Total amount determination. The net OD values were used to calculate the inhibitory effect of compounds.

For the next data set, the target named is T1, VEGFR (Homo sapiens, UniProt P35968).
T1 construct: endogenous in cells; host or cells: HUVEC-C
Description: Inhibition of VEGF-induced VEGFR (Y1175)-phosphorylation (cell-based assay, HUVEC-C). Particulars: VEGF 50 ng/ml, Western blot. The method, then:
HUVEC-C cells (Human Umbilical Vein Endothelial Cells from ATCC) were plated at 6×10^4 cells/well in 24 w microplates and grown adherent in medium F12K+0.1 mg/ml Heparin+0.05 mg/ml ECGS+10% FBS at 37° C. with 5% CO2. After 24 h, medium was removed and starvation was induced overnight in medium F12K+0.1 mg/ml Heparin+0.5% FBS (medium starvation). At the end of incubation, treatment of cells was performed by medium replacement and by adding fresh medium containing or not diluent or test compounds (DMSO 0.1% final concentration) diluted in medium starvation. After 1 hour, VEGF stimuli (diluted in medium starvation, 50 ng/ml final concentration) was added to each sample, with the exception of basal sample; plate was then incubated for 5 min at 37° C. with 5% CO2. At the end of the incubation, the medium was removed and cellular lysates were obtained by adding M-PER lysis buffer containing 1× Protease/Phosphatase inhibitors cocktail. Then, lysates were transferred into Eppendorf tubes, sonicated and stored at −80° C.
Lysates were analyzed by Western blot for VEGFR phosphorylation (Tyrosine 1175) and total receptor amount determination. Densitometric analysis of sample lanes were performed by ImageQuant TL software (GE Healthcare Life Sciences). […]

A further data set has as its system U87MG xenograft. Description: Survival time of intracranial U87MG glioblastoma bearing mice. The format is in vivo, athymic Nude mice. Particulars: 50 mg/kg orally once a day, day 9 until day 19. The method, then:
Human U87MG cancer cell line were implanted in athymic Nude mice by intracranial injection. Mice, divided into two groups, were orally dosed for 10 days either with vehicle or with Compound 5 (50 mg/kg, once a day) from the day 9 until day 19 after injection of tumour cells. The animal survival was tracked over time, mice were monitored for mortality and sacrificed at appearance of signs of distress, neurological deficits, seizure, or significant body weight loss (e.g. >20%).

The next data set deals with T2, YES kinase (Homo sapiens, UniProt P07947).
T2 construct: purchased Thermo Fisher
Description: ADP-Glo in vitro kinase assay, YES kinase inhibition. The format is biochemical. The conditions noted are these: ATP 50 μM, 30 minutes at room temperature. On the procedure:
The ADP-Glo™ Kinase Assay (Promega), monitoring ADP produced in the kinase reaction, was performed in two steps. In the first one, after the kinase reaction, the ADP-Glo™ Reagent is added to terminate the kinase reaction and deplete the remaining ATP. In the second step, the Kinase Detection Reagent is added to simultaneously convert ADP to ATP (ATPn or newly synthesized ATP) and introduce luciferase and luciferin, allowing the ATPn to be measured (luciferase/luciferin reaction). The amount of light generated correlates with the amount of ATPn (indirectly with the ADP produced in kinase reaction).
Kinase reaction was performed in 10 μl in a white 384-well plate, inhibitor solutions in DMSO/Kinase buffer (40 mM Tris-Cl, 20 mM MgCl2, 0.1 mg/ml BSA, 50 μM DTT, pH 7.5) and YES kinase in Kinase buffer (Thermo Fisher, 0.5 ng/μl final concentration in assay) were pre-incubate 15 minutes at room temperature. At the kinase concentration selected, a signal-to negative control ratio >10 was calculated, according to supplier indication. […]
The range of inhibitor concentrations was from 10^−10 M up to 10^−5 M (final concentration in assay) and each experimental point was performed in duplicate. […] The luminescence was measured with a plate-reading luminometer (Envision 2104 Multilabel reader, PerkinElmer). […]

The nature of data set [1]: Pharmacokinetics in CD1 mice, iv and po. In kind it is in vivo. Particulars: 3 mg/kg; for Kp: brain and plasma, read-out: B/P (brain to plasma ratio); for half-life: read-out: t½* (converted).

Where two headings read alike, the source gives them in different places. Where only a bound is given, the exact number is not on record here.

Sequence of human FynB (P06241 271-524 limits assumed): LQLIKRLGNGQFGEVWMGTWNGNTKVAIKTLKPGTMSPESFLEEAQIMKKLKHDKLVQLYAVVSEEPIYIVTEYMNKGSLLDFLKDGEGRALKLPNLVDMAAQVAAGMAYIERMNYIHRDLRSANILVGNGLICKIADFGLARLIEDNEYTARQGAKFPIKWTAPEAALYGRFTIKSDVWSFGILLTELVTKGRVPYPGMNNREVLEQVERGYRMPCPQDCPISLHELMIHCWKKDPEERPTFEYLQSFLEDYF
T2 sequence (P07947 whole entry): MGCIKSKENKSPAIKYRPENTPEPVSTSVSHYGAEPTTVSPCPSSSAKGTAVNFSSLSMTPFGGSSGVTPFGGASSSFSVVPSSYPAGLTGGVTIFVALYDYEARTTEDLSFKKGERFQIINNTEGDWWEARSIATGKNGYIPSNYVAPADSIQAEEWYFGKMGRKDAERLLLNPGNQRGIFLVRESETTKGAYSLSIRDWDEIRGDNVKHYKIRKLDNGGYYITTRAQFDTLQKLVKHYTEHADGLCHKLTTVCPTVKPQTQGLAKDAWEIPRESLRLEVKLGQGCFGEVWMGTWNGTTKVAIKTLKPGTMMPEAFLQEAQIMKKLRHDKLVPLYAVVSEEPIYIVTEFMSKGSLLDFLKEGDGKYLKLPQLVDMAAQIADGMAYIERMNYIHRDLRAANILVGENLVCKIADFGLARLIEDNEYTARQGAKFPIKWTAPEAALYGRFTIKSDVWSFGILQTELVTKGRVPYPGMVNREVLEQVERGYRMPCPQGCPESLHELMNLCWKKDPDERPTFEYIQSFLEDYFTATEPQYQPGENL
T1 sequence (P35968 20-1356): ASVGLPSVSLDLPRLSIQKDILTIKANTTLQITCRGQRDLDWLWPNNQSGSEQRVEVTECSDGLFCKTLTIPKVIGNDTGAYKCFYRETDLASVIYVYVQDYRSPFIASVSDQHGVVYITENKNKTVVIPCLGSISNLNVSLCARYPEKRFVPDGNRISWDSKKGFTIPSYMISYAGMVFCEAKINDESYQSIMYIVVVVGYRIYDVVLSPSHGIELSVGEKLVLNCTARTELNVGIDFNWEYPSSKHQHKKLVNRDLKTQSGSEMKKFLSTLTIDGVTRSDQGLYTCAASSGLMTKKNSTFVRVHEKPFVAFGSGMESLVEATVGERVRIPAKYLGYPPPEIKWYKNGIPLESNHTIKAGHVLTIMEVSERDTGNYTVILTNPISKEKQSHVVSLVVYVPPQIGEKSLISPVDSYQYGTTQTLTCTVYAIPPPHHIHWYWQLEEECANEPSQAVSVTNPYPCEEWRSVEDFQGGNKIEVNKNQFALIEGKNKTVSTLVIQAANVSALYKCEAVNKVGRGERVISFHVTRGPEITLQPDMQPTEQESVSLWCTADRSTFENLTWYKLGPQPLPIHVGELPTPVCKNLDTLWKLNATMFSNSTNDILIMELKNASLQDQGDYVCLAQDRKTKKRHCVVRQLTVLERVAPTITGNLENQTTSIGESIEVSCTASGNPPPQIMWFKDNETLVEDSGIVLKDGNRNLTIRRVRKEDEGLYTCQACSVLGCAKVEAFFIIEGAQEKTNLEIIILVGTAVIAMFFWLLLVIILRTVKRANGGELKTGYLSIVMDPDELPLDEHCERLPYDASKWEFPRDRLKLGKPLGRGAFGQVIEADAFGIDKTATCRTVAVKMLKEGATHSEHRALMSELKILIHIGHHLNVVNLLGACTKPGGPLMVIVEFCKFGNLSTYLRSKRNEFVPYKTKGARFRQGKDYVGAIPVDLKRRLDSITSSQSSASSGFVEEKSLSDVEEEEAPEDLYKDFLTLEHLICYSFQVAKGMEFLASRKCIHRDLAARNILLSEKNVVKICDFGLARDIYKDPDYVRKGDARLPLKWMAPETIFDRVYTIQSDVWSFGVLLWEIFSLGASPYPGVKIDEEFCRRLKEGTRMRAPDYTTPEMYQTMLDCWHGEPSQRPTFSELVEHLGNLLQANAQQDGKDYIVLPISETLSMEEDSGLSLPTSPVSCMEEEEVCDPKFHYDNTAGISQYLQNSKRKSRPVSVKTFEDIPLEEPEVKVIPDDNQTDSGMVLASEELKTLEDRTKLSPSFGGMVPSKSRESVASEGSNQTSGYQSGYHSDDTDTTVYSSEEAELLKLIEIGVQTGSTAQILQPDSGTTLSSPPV

`CN1CCC(c2ccc(C(=O)Nc3n[nH]c4nc(Nc5ccccc5F)ccc34)cc2)CC1` [Compound 5, N-(6-((2-fluorophenyl)amino)-1H-pyrazolo[3,4-b]pyridin-3-yl)-4-(1-methylpiperidin-4-yl)benzamide]: the “reduction of cell viability, result in words” value in the data set with U87MG was “active in reducing cell viability”. The molecule also registered an IC50 at human FynB (HEK293 over-expressing FynB and Tau 0N4R, incubation 6 or 24 hours, ELISA) of 300 nM. Also, the “Inhibition of FynB-induced Tau(Y18)-phosphorylation, result in words” value on human FynB (summary of Table 20) is on record as “best inhibitors”. Besides, the “Concentration from which maximal inhibitory activity on VEGFR-phosphorylation is shown” value at VEGFR is not below 1 µM. Moreover, the “median survival time from tumour cell injection” value in the data set on U87MG xenograft was determined as 70 days. Also, the IC50 on YES kinase is 3.6 nM. The molecule also came in with a Tlast in data set [1] (iv) of 24 h. In addition, the Kp in data set [1] (mouse, calculated on AUC iv) was 1.2. Moreover, the Kp in data set [1] (mouse, calculated on AUC po) was 1.4. In data set [1] (mouse, plasma, iv), the AUC(0-inf) was 1640 ng·h/mL, the AUC(0-t) amounted to 1620 ng·h/mL and the half-life was 3.9 h. Also, the clearance in data set [1] (mouse, plasma, iv, read-out: CLp) came out at 30.4 mL/min/kg. The Vd in data set [1] (mouse, plasma, iv, read-out: Vz) stood at 10.2 L/kg. Besides, in data set [1] (mouse, plasma, po), the AUC(0-inf) was 1180 ng·h/mL, the AUC(0-t) worked out at 1170 ng·h/mL, the Cmax was determined as 331 nM and the time of peak concentration (Tmax) was 2 h. Also, in data set [1] (mouse, plasma, po), the bioavailability was 72% and the half-life was 4 h. In data set [1] (po), the Tlast is 24 h.
